In brackets after ≈: the same amount, converted by molar mass.
Legend:
Type in all cases: cell-based
[1] = tested on: P. falciparum 3D7 (chloroquine-sensitive); assay: Anti-malarial activity, P. falciparum 3D7 culture, 72 hour, DNA content by flow cytometry; conditions: Plasmodium falciparum, 3D7, 72 h, synchronized ring-stage parasites
Procedure: Numerous compounds were screened in cultures of the malaria parasite P. falciparum 3D7 (chloroquine-sensitive) and DD2 (chloroquine-resistant). The compounds were also screened for toxixcity against 3T3 cells, HepG2 cells, and in a hemolysis assay. In brief, P. falciparum parasites were cultured in RPMI 1640 (Invitrogen) supplemented with Albumax II (Invitrogen). For synchronization, schizont stage parasites were magnet purified using a SuperMACS™ II Cell Separation Unit (Miltenyi Biotech). For IC50 determinations, synchronized ring-stage parasites were plated at 0.5% parasitemia and 8% hematocrit in 96-well plates at a total volume of 50 μL. Serial dilutions of 2× concentration of the respective compound, ranging from 2.5 μM to 20 nM, were added to the wells to bring the total volume up to 100 μL and 4% hematocrit. Compounds were assayed for a 72 hour period, after which the cultures were fixed with a solution of 4% paraformaldehyde and 0.08% glutaraldhyde in PBS. The cells were then permeabilized with 0.25% Triton X-100, and SYTOX Green Nucleic Acid Stain (Invitrogen) in PBS was added to a final concentration of 5 μM. DNA content, as an indicator of parasitemia, was analyzed on an Accuri C6 Flow Cytometer with C-Sampler. IC50 curves were generated using GraphPad Prism (GraphPad Software).

[2] = Cytotoxicity against 3T3 cells; conditions: mouse, 3T3 cells; read-out: Cytotoxicity 3T3 EC50
[3] = Cytotoxicity against HepG2 cells; conditions: human, HepG2 cells; read-out: Cytotoxicity HepG2 EC50
in vitro = assay: in vitro

SMILES	IC50 [1] [µM]	EC50 (in vitro) [µg/mL]	EC50 [2] [µM]	EC50 [3] [µM]
CC(=O)Nc1cc(C(F)(F)F)cc(NC(=O)c2cc(C(=O)Nc3cc(C(F)(F)F)cc(N)c3SCCN)ncn2)c1SCCN [Compound 203]	0.085	66 (≈ 97.5 µM)	15	45
O=C(Nc1ccc(O[C@@H]2CCNC2)c(Cl)c1)c1cc(C(=O)Nc2ccc(O[C@@H]3CCNC3)c(Cl)c2)ncn1 [Compound 205]	0.07	176 (≈ 316 µM)	40	307
O=C(Nc1ccc(C2CCNCC2)cc1)c1cc(C(=O)Nc2ccc(C3CCNCC3)cc2)ncn1 [Compound 208]	0.139	12 (≈ 24.8 µM)	122	183
CN(C)C1CCN(c2ccc(NC(=O)c3cccc(C(=O)Nc4ccc(N5CCC(N(C)C)CC5)cc4)n3)cc2)CC1 [Compound 216]	> 0.1	> 1000	> 1000	> 1000
CN(C)C1CCN(c2ccc(NC(=O)c3ccnc(C(=O)Nc4ccc(N5CCC(N(C)C)CC5)cc4)c3)cc2)CC1 [Compound 217]	> 0.1	> 1000	> 1000	> 1000
N=C(N)NCCc1cccc(-c2cc(-c3cccc(CCNC(=N)N)c3)ncn2)c1 [Compound 221]	0.08	> 1000	> 1000	> 1000
N=C(N)NCCSc1nc(-c2cccc(CCNC(=N)N)c2)cc(-c2cccc(CCNC(=N)N)c2)n1 [Compound 222]	0.551	> 1000	764	> 1000
NCCCc1cccc(-c2cncc(-c3ccc(-c4cncc(-c5cccc(CCCN)c5)c4)s3)c2)c1 [Compound 232]	0.273	6 (≈ 11.9 µM)	37	56
N=C(N)NCCCc1cccc(-c2cncc(-c3ccc(-c4cncc(-c5cccc(CCCNC(=N)N)c5)c4)s3)c2)c1 [Compound 233]	0.737	2 (≈ 3.4 µM)	61	88
N=C(N)NCCc1ccc(-c2ccc(-c3ccc(CCNC(=N)N)cc3)s2)cc1 [Compound 248]	0.003	24 (≈ 59 µM)	50	54
N=C(N)N1CCN(c2ccc(-c3ccc(-c4ccc(N5CCN(C(=N)N)CC5)nc4)s3)cn2)CC1 [Compound 254]	0.154	36 (≈ 73.4 µM)	32	49
c1cc(-c2ccc(N3CCNCC3)nc2)cc(-c2ccc(N3CCNCC3)nc2)c1 [Compound 257]	> 0.1	> 1000	40	220
N=C(N)N1CCN(c2ccc(-c3cccc(-c4ccc(N5CCN(C(=N)N)CC5)nc4)c3)cn2)CC1 [Compound 258]	0.058	545 (≈ 1120 µM)	165	305
Cn1c(-c2ccc(N3CCNCC3)cc2)cnc1-c1ccc(N2CCNCC2)cc1 [Compound 259]	> 0.1	287 (≈ 713 µM)	> 1000	> 1000
N=C(N)NCCSc1ccc(NC(=O)Nc2cccc(CCNC(=N)N)c2)cc1C(F)(F)F [Compound 270]	0.108	317 (≈ 657 µM)	398	702
COc1cc(SCCN)c(C(F)(F)F)cc1NC(=O)Nc1ccc(SCCNC(=N)N)c(C(F)(F)F)c1 [Compound 276]	1.11	65 (≈ 114 µM)	42	154
NCCCOc1cc(OCCCN)cc(-c2ccc3c(c2)c2cc(-c4cc(OCCCN)cc(OCCCN)c4)ccc2n3CCCN)c1 [Compound 279]	0.773	> 1000	436	885
CC1(C)c2cc(-c3cccc(CCNC(=N)N)c3)ccc2-c2ccc(-c3cccc(CCNC(=N)N)c3)cc21 [Compound 284]	> 0.1	2 (≈ 3.87 µM)	6	28
N#Cc1cccc(C(=O)Nc2cc(NC(=O)c3cc(C(=O)Nc4cc(NC(=O)c5cccc(C#N)c5)cc(C(F)(F)F)c4)c(OCCN)cc3OCCN)cc(C(F)(F)F)c2)c1 [Compound 299]	> 0.1	251 (≈ 292 µM)	920	920
COc1cc(SCCN)c(C(F)(F)F)cc1NC(=O)c1cc(C(=O)Nc2cc(C(F)(F)F)c(SCCN)cc2OC)ncn1 [Compound 301]	0.029	< 1	716	778
COc1cc(SCCNC(=N)N)c(C(F)(F)F)cc1NC(=O)c1cc(C(=O)Nc2cc(C(F)(F)F)c(SCCNC(=N)N)cc2OC)ncn1 [Compound 302]	0.333	4 (≈ 5.34 µM)	687	> 1000
CC(=O)Nc1cc(C(F)(F)F)cc(NC(=O)c2cc(C(=O)Nc3cc(C(F)(F)F)cc(NC(C)=O)c3SCCN)ncn2)c1SCCN [Compound 303]	0.034	62 (≈ 86.3 µM)	887	> 1000
NCCSc1c(NC(=O)c2ccccc2)cc(C(F)(F)F)cc1NC(=O)c1cc(C(=O)Nc2cc(C(F)(F)F)cc(NC(=O)c3ccccc3)c2SCCN)ncn1 [Compound 304]	0.069	3 (≈ 3.56 µM)	934	934
NCCSc1c(NC(=O)c2cccc(F)c2)cc(C(F)(F)F)cc1NC(=O)c1cc(C(=O)Nc2cc(C(F)(F)F)cc(NC(=O)c3cccc(F)c3)c2SCCN)ncn1 [Compound 305]	0.078	223 (≈ 254 µM)	898	904
NCCSc1c(NC(=O)c2cccc(Br)c2)cc(C(F)(F)F)cc1NC(=O)c1cc(C(=O)Nc2cc(C(F)(F)F)cc(NC(=O)c3cccc(Br)c3)c2SCCN)ncn1 [Compound 306]	> 0.1	793 (≈ 792 µM)	814	814
COc1ccc(C(=O)Nc2cc(C(F)(F)F)cc(NC(=O)c3cc(C(=O)Nc4cc(C(F)(F)F)cc(NC(=O)c5ccc(OC)cc5)c4SCCN)ncn3)c2SCCN)cc1 [Compound 310]	0.084	81 (≈ 89.7 µM)	> 1000	884
c1cc(N2CCNCC2)ccc1-c1ccc(N2CCNCC2)cc1 [Compound 317]	> 0.1	> 1000	553	500
c1cc(-c2ccc(N3CCNCC3)nc2)cc(-c2cccc(-c3ccc(N4CCNCC4)nc3)c2)c1 [Compound 319]	> 0.1	52 (≈ 109 µM)	57	83

The next lines start with results.

IC50 [1] [µM]	EC50 (in vitro) [µg/mL]	SMILES	EC50 [2] [µM]	EC50 [3] [µM]
0.103	88 (≈ 135 µM)	CN1CC[C@@H](Oc2ccc(NC(=O)c3cc(C(=O)Nc4ccc(O[C@@H]5CCN(C)C5)c(C(F)(F)F)c4)ncn3)cc2C(F)(F)F)C1 [Compound 204]	477	483
0.179	> 1000	N#Cc1cc(NC(=O)c2cc(C(=O)Nc3ccc(O[C@@H]4CCNC4)c(C#N)c3)ncn2)ccc1O[C@@H]1CCNC1 [Compound 206]	> 1000	> 1000
0.182	29 (≈ 59.4 µM)	O=C(Nc1ccc(O[C@H]2CCNC2)cc1)c1cc(C(=O)Nc2ccc(O[C@H]3CCNC3)cc2)ncn1 [Compound 207]	478	819
> 0.1	> 1000	O=C(Nc1ccc(OC2CCNCC2)nc1)c1cc(C(=O)Nc2ccc(OC3CCNCC3)nc2)ncn1 [Compound 214]	> 1000	> 1000
> 0.1	> 1000	O=C(Nc1ccc(O[C@@H]2CCNC2)nc1)c1cc(C(=O)Nc2ccc(O[C@@H]3CCNC3)nc2)ncn1 [Compound 215]	> 1000	> 1000
0.004	12 (≈ 29.7 µM)	c1cc(N2CCNCC2)ccc1-c1ccc(-c2ccc(N3CCNCC3)cc2)s1 [Compound 252]	> 1000	> 1000
0.107	8 (≈ 16.4 µM)	N=C(N)N1CCN(c2ccc(-c3ccc(-c4ccc(N5CCN(C(=N)N)CC5)cc4)s3)cc2)CC1 [Compound 253]	419	606
0.152	28 (≈ 72.1 µM)	c1cc(N2CCNCC2)ccc1-c1ccc(-c2ccc(N3CCNCC3)cc2)o1 [Compound 255]	29	45
0.078	> 1000	Cn1c(-c2ccc(N3CCN(C(=N)N)CC3)cc2)cnc1-c1ccc(N2CCN(C(=N)N)CC2)cc1 [Compound 261]	> 1000	932
0.041	757 (≈ 848 µM)	N#Cc1ccc(C(=O)Nc2cc(C(F)(F)F)cc(NC(=O)c3cc(C(=O)Nc4cc(C(F)(F)F)cc(NC(=O)c5ccc(C#N)cc5)c4SCCN)ncn3)c2SCCN)cc1 [Compound 307]	846	892
> 0.1	2 (≈ 2.62 µM)	N#Cc1ccc(C(=O)Nc2cc(C(F)(F)F)cc(NC(=O)c3cc(C(=O)Nc4cc(C(F)(F)F)cc(N)c4SCCN)ncn3)c2SCCN)cc1 [Compound 308]	22	34
> 0.1	> 1000	NCCCc1ccc(-c2ccc(CCCN)cc2)cc1 [Compound 318]	624	> 1000

From US20150094294A1, “COMPOUNDS AND METHODS FOR TREATING MALARIA” (Cellceutix Corporation, priority 2012, published 2015)
